Patent US4994617A, “Aminoalcohols, their preparation process and their applications, particularly in therapeutics” (Jouveinal S.A., priority 1986, dated 1991)

Assays:
mice [1] = experiment: tail hanging test, activity on the S.N.C. (central nervous system), mice, oral; format: in vivo, mouse; conditions: 1 hour before the test; for change in vivo at 32 mg/kg / change in vivo at 128 mg/kg: Mus musculus, po, 1 h, read-out: S.N.C.: Hanging test, activity percentages compared with the controls
Procedure: This activity was investigated on mice using the tail hanging test in accordance with the procedure described by Thierry et al. (Behavioral and Neural Biology, 1984, 41, 180-189), which was proposed as a model for the animal for the selection of products active on the S.N.C.
The tests were carried out on batches of 10 male mice for each product and at each dose, the substances to be investigated being administered orally in aqueous solution 1 hour before the test, a control batch only receiving distilled water.
The results of the tests are given in activity percentages compared with the controls.

mice [2] = experiment: acetic acid test, analgesic activity, mice, oral; format: in vivo, mouse; conditions: for Analgesia: Acetic acid test, percentages of analgesed animals: Dose: 30 mg/kg, 30 minutes before acetic acid injection; for ED50: Mus musculus, read-out: Analgesia: Acetic acid test, ED50 (dose causing analgesia of 50% of the animals)
Procedure: This was investigated and determined on mice using the acetic acid test according to a procedure derived from that of Troster R. (Fed. Proc. 1959, 18, 412).
20 hours prior to the test, the animals were starved of food and drink. This was followed by the oral administration in aqueous solution of the product to be investigated at a rate of 2 ml of solution per 100 g of body weight, which was followed 30 minutes later by an intraperitoneal injection of 0.25 ml of 0.25% acetic acid solution (wt/v) maintained at 37° C. 30 minutes after this injection, the number of abdominal cramps suffered by the animals were counted for a period of 10 minutes.
The animals were considered to be analgesed when the number of cramps suffered was less than half the mean value of the cramps experienced by the controls.
The products were administered at a dose rate of 30 mg-kg^-1 and the results are given in percentages of analgesed animals. For certain products, several doses were administered and the calculation of their ED50 (dose causing analgesia of 50% of the animals) was determined in log probability units.

Row | Structure (SMILES) | change in vivo at 32 mg/kg (mice [1]; Dose: 32 mg/kg) [%] | change in vivo at 128 mg/kg (mice [1]; Dose: 128 mg/kg) [%] | Analgesia: Acetic acid test, percentages of analgesed animals (mice [2]) [%] | also measured
1 | CN(C)C(C)(CO)Cc1ccc(Cl)c(Cl)c1 (racemic) [JO 1017, (±) 2-methyl-2-dimethylamino-3-(3,4-dichlorophenyl)-propanol] | -65 | -85 | -86 | ED50 (mice [2]): 14 mg/kg
2 | CC(N)(CO)Cc1ccc(Cl)c(Cl)c1 (racemic) [JO 1275, (±) 2-methyl-2-amino-3-(3,4-dichlorophenyl)-propanol] | -78 | -86 | -43 | 
3 | CNC(C)(CO)Cc1ccc(Cl)c(Cl)c1 (racemic) [JO 1276, (±) 2-methyl-2-methylamino-3-(3,4-dichlorophenyl)-propanol] | -58 | -83 | -86 | ED50 (mice [2]): 8.5 mg/kg
4 | CCNC(C)(CO)Cc1ccc(Cl)c(Cl)c1 (racemic) [JO 1277, (±) 2-methyl-2-ethylamino-3-(3,4-dichlorophenyl)-propanol] |  |  | -43 | 
5 | CCN(C)C(C)(CO)Cc1ccc(Cl)c(Cl)c1 (racemic) [JO 1291, (±) 2-methyl-2-(N-methyl, N-ethyl)-amino-3-(3,4-dichlorophenyl)-propanol] | -58 |  | -38 | 
6 | CN(CCc1ccccc1)C(C)(CO)Cc1ccc(Cl)c(Cl)c1 (racemic) [JO 1457, (±) 2-methyl-2-[N-methyl, N-(2-phenyl)-ethyl]-amino-3-(3,4-dichlorophenyl)-propanol] | -60 |  |  | 
7 | CCCCCC(N)(CO)Cc1ccc(Cl)c(Cl)c1 (racemic) [JO 1562, (±) 2-pentyl-2-amino-3 (3,4-dichlorophenyl)-propanol] | -73 |  |  | 
8 | CCCCCC(CO)(Cc1ccc(Cl)c(Cl)c1)NC (racemic) [JO 1563, (±) 2-penthyl-2-methylamino-3-(3,4-dichlorophenyl)-propanol] | -49 | -71 |  | 
9 | CCCCCC(CO)(Cc1ccc(Cl)c(Cl)c1)N(C)C (racemic) [JO 1564, (±) 2-pentyl-2-dimethylamino-3-(3,4-dichlorophenyl)-propanol] |  | -74 |  | 
10 | CC(C)C(N)(CO)Cc1ccc(Cl)c(Cl)c1 (racemic) [JO 1579, (±) 2-isopropyl-2-amino-3 (3,4-dichlorophenyl)-propanol] |  | -67 |  | 
11 | C=CCN(C)C(C)(CO)Cc1ccc(Cl)c(Cl)c1 (racemic) [JO 1581, (±) 21-methyl-2-(N-methyl, N-allyl)-amino-3-(3,4-dichlorophenyl)-propanol] |  | -61 |  | 
12 | CN(C)C(C)(CO)Cc1ccc(Cl)c(Cl)c1 (single isomer, unassigned; (+)) [JO 1240, (+) 2-methyl-2-dimethylamino-3-(3,4-dichlorphenyl)-propanol] |  |  |  | S.N.C.: Hanging test, activity percentages compared with the controls (mice [1]; Dose: 32 mg/kg, 32 mg/kg): -77%; S.N.C.: Hanging test, activity percentages compared with the controls (mice [1]; Dose: 128 mg/kg, 128 mg/kg): -85%
13 | CC(N)(CO)Cc1ccc(Cl)c(Cl)c1 (single isomer, unassigned; (+)) [JO 1307, (+) 2-methyl-2-amino-3-(3,4-dichlorophenyl)-propanol] |  |  | -50 | 
14 | CNC(C)(CO)Cc1ccc(Cl)c(Cl)c1 (single isomer, unassigned; (+)) [JO 1308, (+) 2-methyl-2-methylamino-3-(3,4-dichlorophenyl)-propanol] |  |  | -88 | 
15 | CN(C)C(C)(CO)Cc1ccc(Cl)c(Cl)c1 (single isomer, unassigned; (-)) [JO 1239, (-) 2-methyl-2-dimethylamino-3-(3,4-dichlorophenyl)-propanol] |  |  | -86 | S.N.C.: Hanging test, activity percentages compared with the controls (mice [1]; Dose: 32 mg/kg, 32 mg/kg): -74%; S.N.C.: Hanging test, activity percentages compared with the controls (mice [1]; Dose: 128 mg/kg, 128 mg/kg): -64%; ED50 (mice [2]): 11 mg/kg
16 | CCNC(C)(CO)Cc1ccc(Cl)c(Cl)c1 (single isomer, unassigned; (-)) [JO 1296, (-) 2-methyl-2-ethylamino-3-(3,4-dichlorophenyl)-propanol] |  |  | -38 | 
17 | CN(C)CCCN1c2ccccc2CCc2ccc(Cl)cc21 [Clomipramine, clomipramine, reference compound] | -49 | -54 |  | 
